Results on five compounds are retold here after PMC5318888, “SAMHD1 enhances nucleoside-analogue efficacy against HIV-1 in myeloid cells” (Scientific Reports, 2017).

As usually defined, the EC50 is the concentration needed to bring the measured effect to its halfway point. For orientation: CC50 means the concentration giving 50% cytotoxicity. A higher CC50 goes with lower toxicity to the cells.

Holding throughout (format): cell-based
In series [1] the test system is HIV-1-GFP. As to the kind of experiment: Anti-HIV-1 activity in THP-1 cells with or without Vpx transduction. The protocol:
Antiviral assays were further performed in monocytoid cells transduced with YFP-expressing VLPs containing WT SAMHD1, HD206-7AA or Vpx. Briefly, U937 cells (6 × 10^5 cells/mL) were transduced with WT SAMHD1-YFP or HD206-7AA-YFP VLPs by spinoculation at 800 × g for 90 min in the presence of 1 μg/mL polybrene. Similarly, THP-1 cells (6 × 10^5 cells/mL) were transduced with Vpx-YFP VLPs by spinoculation at 800 × g for 90 min in the presence of 1 μg/mL polybrene. Cells were incubated at 37 °C in 5% CO2 and after 72 h, PMA^+ cells (6 × 10^5 cells/mL) were treated with 100 nM PMA and PMA^− cells (7.5 × 10^4 cells/mL) were left untreated. Cells were then incubated at 37 °C in 5% CO2 for 48 h. Nucleoside analogues were added at increasing concentrations (0–200 μM; except CFB, 0–1.6 μM) and cells were further incubated for 48 h. PMA^− cells were then infected with HIV-1-GFP by spinoculation at 800 × g for 90 min in the presence of 1 μg/mL polybrene, PMA^+ cells were infected with HIV-1-GFP in the presence of 1 μg/mL polybrene only. Cells were incubated for 72 h at 37 °C in 5% CO2 and then analysed by two-colour flow cytometry using a Fortessa X20 analyser (BD Biosciences). Data were analysed using the FlowJo software suite.
(§1) The cytotoxic concentration of nucleoside analogue that inhibits cell viability by 50% (CC50) and the effective concentration of nucleoside analogue that inhibits infection of cells by 50% (EC50) were calculated for each independent experiment by non-linear regression using GraphPad Prism v6.00 for Windows (GraphPad Software, San Diego, CA). Non-ambiguous values were subjected to a replicate test to calculate confidence intervals of 95% (95% CI). CC50 and EC50 values were determined for at least two independent experiments for each nucleoside analogue and a selectivity index (SI) also calculated, (SI = CC50/EC50). EC50 values for each replicate were used to perform an unpaired two-tailed t-test to determine significant differences between U937 cells expressing SAMHD1 wt or HD206-7AA mutant and THP-1 cells expressing Vpx or untransduced cells. P values of <0.005 were considered statistically significant.

Series [2] deals with HIV-1-GFP. As to the kind of experiment: microbe, parasite or virus in culture. The protocol: H9 and Jurkat cells (6 × 10^5 cells/mL) were treated with increasing concentrations of nucleoside analogues (0–200 μM; except CFB, 0–1.6 μM) and incubated for 4 h at 37 °C in 5% CO2. Cells were then infected with HIV-1-GFP by spinoculation at 800 × g for 90 min in the presence of 1 μg/mL polybrene, and further incubated at 37 °C in 5% CO2 for 72 h. Undifferentiated U937 and THP-1 (PMA^−) cells (6 × 10^5 cells/mL) were treated with increasing concentrations of nucleoside analogues (0–200 μM; except CFB, 0–1.6 μM) and incubated at 37 °C in 5% CO2 for 48 h. Cells were then infected with HIV-1-GFP by spinoculation at 800 × g for 90 min in the presence of 1 μg/mL polybrene, and further incubated at 37 °C in 5% CO2 for 72 h. Non-dividing U937 and THP-1 (PMA^+) cells (6 × 10^5 cells/mL) were differentiated by addition of 100 nM PMA (PMA^+) for 48 h and treated with increasing concentrations of nucleoside analogues as described above. Cells were then infected with HIV-1-GFP in the presence of 1 μg/mL polybrene and further incubated at 37 °C in 5% CO2 for 72 h. The percentage of GFP^+cells was determined by one-colour flow cytometry using a Fortessa X20 analyser (BD Biosciences) and the data analysed using the FlowJo software suite.
Non-ambiguous values were subjected to a replicate test to calculate confidence intervals of 95% (95% CI). CC50 and EC50 values were determined for at least two independent experiments for each nucleoside analogue and a selectivity index (SI) also calculated, (SI = CC50/EC50). EC50 values for each replicate were used to perform an unpaired two-tailed t-test to determine significant differences between U937 cells expressing SAMHD1 wt or HD206-7AA mutant and THP-1 cells expressing Vpx or untransduced cells. P values of <0.005 were considered statistically significant.

The nature of a further series: in vitro. Particulars: human. The protocol: H9, Jurkat and undifferentiated U937 and THP-1 (PMA^−) cells (6 × 10^5 cells/mL) were treated with increasing concentrations of nucleoside analogues (0–200 μM; except CFB, 0–1.6 μM) and incubated at 37 °C in 5% CO2 for 48 h. Medium was then replaced and cells were further incubated for 72 h. Non-dividing U937 and THP-1 (PMA^+) cells (6 × 10^5 cells/mL) were differentiated by addition of 100 nM phorbol-12-myristate-13-acetate (PMA^+) for 48 h and then treated with increasing concentrations of nucleoside analogues as described above. The percentage of live cells was determined by flow cytometry using Live/Dead fixable blue-fluorescent dyes (Invitrogen) and a Fortessa X20 analyser (BD Biosciences). Data were analysed using the FlowJo software suite.
as §1

The mark [3] stands for this setting: Human immunodeficiency virus 1, THP-1, read-out: EC50 [95% CI], THP1 PMA+, Vpx+.
Where [4] appears, read: Human immunodeficiency virus 1, THP-1, read-out: EC50 [95% CI], THP1 PMA+, Vpx−.
The mark [5] stands for this setting: Human immunodeficiency virus 1, THP-1, read-out: EC50 [95% CI], THP1 PMA−, Vpx+.
Setting [6] is: Human immunodeficiency virus 1, THP-1, read-out: EC50 [95% CI], THP1 PMA−, Vpx−.
Where [7] appears, read: Human immunodeficiency virus 1, THP-1, read-out: EC50 [95% CI], THP1 PMA+.
[8] abbreviates: Human immunodeficiency virus 1, THP-1, read-out: EC50 [95% CI], THP1 PMA−.
The mark [9] stands for this setting: Human immunodeficiency virus 1, U-937, read-out: EC50 [95% CI], U937 PMA+.
[10] abbreviates: Human immunodeficiency virus 1, U-937, read-out: EC50 [95% CI], U937 PMA−.

Take `Nc1nc2c(ncn2COCCO)c(=O)[nH]1` [ACV, Acycloguanosine]: the EC50 with HIV-1-GFP [1] (setting [3]) is 29600 nM; in the series with HIV-1-GFP [1] (setting [4]) it was 1080 nM; in the series with HIV-1-GFP [1] (setting [5]), greater than 200000 nM; in the series with HIV-1-GFP [1] (setting [6]) it was greater than 200000 nM; with HIV-1-GFP [2] (setting [7]), 657 nM; with HIV-1-GFP [2] (setting [8]) it was greater than 200000 nM. For the same compound, the figures for the EC50 in the series on HIV-1-GFP [2] (setting [9]) and in the series on HIV-1-GFP [2] (setting [10]) were 52200 nM and greater than 200000 nM, respectively. The “Fold (EC50 Vpx+ vs Vpx−)” value in the series with HIV-1-GFP [1] (THP1 PMA+) stood at 27 fold. In addition, the “SI, selectivity index CC50/EC50” value in the series on HIV-1-GFP [2] (THP-1 PMA+) is reported as greater than 304; in the series on HIV-1-GFP [2] (U937 PMA+), greater than 4.

Turning to `Nc1nc(O)c2ncn(COC(CO)CO)c2n1` [GCV, 2′-Nor-2′-deoxyguanosine], the 50% effective concentration (EC50) with HIV-1-GFP [1] (setting [3]) is greater than 200000 nM; in the series on HIV-1-GFP [1] (setting [4]), 632 nM; in the series on HIV-1-GFP [1] (setting [5]), greater than 200000 nM; with HIV-1-GFP [1] (setting [6]), greater than 200000 nM; with HIV-1-GFP [2] (setting [7]), 367 nM; in the series with HIV-1-GFP [2] (setting [8]), greater than 200000 nM. Further, the EC50 in the series with HIV-1-GFP [2] (setting [9]) and in the series with HIV-1-GFP [2] (setting [10]) was greater than 200000 nM each time. For the same compound, the “Fold (EC50 Vpx+ vs Vpx−)” value in the series with HIV-1-GFP [1] (THP1 PMA+) was greater than 316 fold. The “SI, selectivity index CC50/EC50” value in the series on HIV-1-GFP [2] (THP-1 PMA+) is listed as greater than 545.

As for `Cc1ccnc2c1NC(=O)c1cccnc1N2C1CC1` [NVP, Nevirapine], the EC50 came out at 235 nM in the series with HIV-1-GFP [1] (setting [3]); 223 nM with HIV-1-GFP [1] (setting [4]); 292 nM in the series on HIV-1-GFP [1] (setting [5]); 244 nM in the series with HIV-1-GFP [1] (setting [6]); 219 nM in the series with HIV-1-GFP [2] (setting [7]); 369 nM with HIV-1-GFP [2] (setting [8]). Further, the EC50 in the series on HIV-1-GFP [2] (setting [9]) came to 118 nM; in the series on HIV-1-GFP [2] (setting [10]) it was 505 nM. In addition, the “Fold (EC50 Vpx+ vs Vpx−)” value with HIV-1-GFP [1] (THP1 PMA+) and with HIV-1-GFP [1] (THP1 PMA−) was 1 fold each time. The “SI, selectivity index CC50/EC50” value in the series on HIV-1-GFP [2] (THP-1 PMA+) was greater than 913; with HIV-1-GFP [2] (THP-1 PMA−), greater than 542; with HIV-1-GFP [2] (U937 PMA+), greater than 1695; in the series with HIV-1-GFP [2] (U937 PMA−) it was greater than 396.

`Cc1nnc(C(=O)NC(C)(C)c2nc(C(=O)NCc3ccc(F)cc3)c(O)c(=O)n2C)o1` [RAL, Raltegravir]: the EC50 worked out at 37 nM in the series on HIV-1-GFP [1] (setting [3]); 38 nM in the series with HIV-1-GFP [1] (setting [4]); 43 nM in the series on HIV-1-GFP [1] (setting [5]); 35 nM in the series on HIV-1-GFP [1] (setting [6]); 37 nM in the series with HIV-1-GFP [2] (setting [7]); 44 nM in the series with HIV-1-GFP [2] (setting [8]). Moreover, the figures for the concentration giving a half-maximal response (EC50) in the series with HIV-1-GFP [2] (setting [9]) and with HIV-1-GFP [2] (setting [10]) were 63 nM and 13 nM, respectively. Also, the “Fold (EC50 Vpx+ vs Vpx−)” value in the series on HIV-1-GFP [1] (THP1 PMA+) and in the series with HIV-1-GFP [1] (THP1 PMA−) was 1 fold each time. Besides, the “SI, selectivity index CC50/EC50” value in the series on HIV-1-GFP [2] (THP-1 PMA+) was greater than 5405; in the series with HIV-1-GFP [2] (THP-1 PMA−) it was greater than 4545; in the series on HIV-1-GFP [2] (U937 PMA+) it was greater than 3175; with HIV-1-GFP [2] (U937 PMA−), greater than 15385.

Regarding `Cc1cn([C@H]2C=C[C@@H](CO)O2)c(=O)[nH]c1=O` [d4T, 2′,3′-didehydro-2′,3′-dideoxythymidine], the EC50 turned out to be 52200 nM in the series on HIV-1-GFP [1] (setting [3]); 1490 nM with HIV-1-GFP [1] (setting [4]); 13300 nM in the series with HIV-1-GFP [1] (setting [5]); 4390 nM in the series on HIV-1-GFP [1] (setting [6]); 3950 nM in the series with HIV-1-GFP [2] (setting [7]); 6210 nM in the series with HIV-1-GFP [2] (setting [8]). Further, the values for the EC50 with HIV-1-GFP [2] (setting [9]) and in the series on HIV-1-GFP [2] (setting [10]) were 7040 nM and 6550 nM, respectively. Moreover, the “Fold (EC50 Vpx+ vs Vpx−)” value in the series with HIV-1-GFP [1] (THP1 PMA+) is given as 35 fold. Further, the CC50 at 48 h in the series “in vitro” is greater than 200000 nM. Also, in the series with HIV-1-GFP [2] (THP-1), the “fold increase of anti-HIV-1 activity in PMA+ over PMA− cells” value was determined as 2 fold. The “SI, selectivity index CC50/EC50” value with HIV-1-GFP [2] (THP-1 PMA+) is greater than 51; in the series on HIV-1-GFP [2] (THP-1 PMA−), greater than 32; in the series with HIV-1-GFP [2] (U937 PMA+) it was greater than 28; in the series with HIV-1-GFP [2] (U937 PMA−), greater than 31.
